“And” between values parts separate entries of the source, which are not always exact repeats. Equal entries are not always repeated. Structures can show the parent of a compound that is named as a salt.
Target: T1, NHE1 (Homo sapiens, UniProt P19634)
T1 construct: expressed in transfected cells
Experiment: NHE inhibition FLIPR test (intracellular pH recovery, BCECF) in transfected LAP-1 cells
Assay type: cell-based
Conditions: transfected cell line (parental LAP-1) expressing the NHE-1 subtype, pHi recovery after acidification
Procedure: The NHE inhibitory activities (IC50 values) of the compounds according to the invention were determined by a FLIPR test.
The test is performed in the FLIPR (Fluorescent Imaging Plate Reader) equipped with clear-bottomed and black-walled 96-well microtitration plates.
The growth medium for the transfected cells (Iscove +10% foetal calf serum) also comprises G418 as selection antibiotic to ensure the presence of transfected sequences.
The actual test begins by eliminating the growth medium and adding 100 μl of loading buffer per well (5 μM of BCECF-AM [2′,7′-bis(2-carboxyethyl)-5-(6)-carboxyfluoresceine acetoxymethyl ester] in 20 mM of NH4Cl, 115 mM of choline chloride, 1 mM of CaCl2, 5 mM of KCl, 20 mM of HEPES and 5 mM of glucose; pH 7.4 (adjusted with KOH). The cells are then incubated for 20 minutes at 37° C. This incubation results in the loading of the fluorescent dye into the cells, the fluorescence intensity of which depends on the pHi, and on the NH4Cl, which results in a slight basification of the cells.
The precursor BCECF-AM, a non-fluorescent dye, is, as an ester, capable of crossing the membrane. The actual dye, which is incapable of crossing the membrane, is released inside the cell by esterases.
After this 20-minute incubation, the loading buffer, which comprises NH4Cl and free BCECF-AM, is removed by washing three times in the cell washing device (Tecan Columbus), each wash being performed with 400 μl of washing buffer (133.8 mM of choline chloride, 4.7 mM of KCl, 1.25 mM of MgCl2, 1.25 mM of CaCl2, 0.97 mM of K2HPO4, 0.23 mM of KH2PO4, 5 mM of HEPES and 5 mM of glucose; pH 7.4 (adjusted with KOH)). The residual volume remaining in the wells is 90 μl (possibly between 50 and 125 μl). This washing step removes the free BCECF-AM and results in an intracellular acidification (pHi of 6.3-6.4) due to the removal of the external ammonium ions.
As the equilibrium of the intracellular ammonium with the aqueous ammonia and the protons, by removal of the extracellular ammonium and by the subsequent immediate crossing of the aqueous ammonia across the cell membrane, is disrupted, the washing process results in intracellular protons remaining, which is the cause of the intracellular acidification. This acidification can result finally in the death of the cells if it lasts long enough. It is important here for the washing buffer to be free of sodium (<1 mM), otherwise the extracellular sodium ions would result in an immediate increase in the pHi on account of the activity of the cloned NHE isoforms. It is also important for all the buffers used (loading buffer, washing buffer and regeneration buffer) not to contain any HCO3-ions, otherwise the presence of bicarbonate would result in the activation of bicarbonate-dependent systems that disrupt the pHi regulation, which systems are contained in the LAP-1 parental cell line.
The microtiter plates containing acidified cells are then transferred (up to 20 minutes after the acidification) to the FLIPR. In the FLIPR, the intracellular fluorescent dye is activated with light of a wavelength of 488 nm, which is generated by an argon laser, and the measuring parameters (laser power, illumination time and diaphragm of the […] camera integrated into the FLIPR) are chosen such that the average value of the fluorescent signal per well is between 30,000 and 35,000 relative fluorescence units.
The actual measurement in the FLIPR starts with a photograph being taken by the CCD camera every two seconds under software control. After 10 seconds, the increase in the intracellular pH is initiated by adding 90 μl of regeneration buffer (133.8 mM of NaCl, 4.7 mM of KCl, 1.25 mM of MgCl2, 1.25 mM of CaCl2, 0.97 mM of K2HPO4, 0.23 mM of KH2PO4, 10 mM of HEPES and 5 mM of glucose; pH 7.4 (adjusted with NaOH)) using a 96-well pipette device incorporated into the FLIPR. Some wells, to which is added pure regeneration buffer, serve as positive controls (100% NHE activity). […]

T1 sequence (P19634 whole entry, species assumed): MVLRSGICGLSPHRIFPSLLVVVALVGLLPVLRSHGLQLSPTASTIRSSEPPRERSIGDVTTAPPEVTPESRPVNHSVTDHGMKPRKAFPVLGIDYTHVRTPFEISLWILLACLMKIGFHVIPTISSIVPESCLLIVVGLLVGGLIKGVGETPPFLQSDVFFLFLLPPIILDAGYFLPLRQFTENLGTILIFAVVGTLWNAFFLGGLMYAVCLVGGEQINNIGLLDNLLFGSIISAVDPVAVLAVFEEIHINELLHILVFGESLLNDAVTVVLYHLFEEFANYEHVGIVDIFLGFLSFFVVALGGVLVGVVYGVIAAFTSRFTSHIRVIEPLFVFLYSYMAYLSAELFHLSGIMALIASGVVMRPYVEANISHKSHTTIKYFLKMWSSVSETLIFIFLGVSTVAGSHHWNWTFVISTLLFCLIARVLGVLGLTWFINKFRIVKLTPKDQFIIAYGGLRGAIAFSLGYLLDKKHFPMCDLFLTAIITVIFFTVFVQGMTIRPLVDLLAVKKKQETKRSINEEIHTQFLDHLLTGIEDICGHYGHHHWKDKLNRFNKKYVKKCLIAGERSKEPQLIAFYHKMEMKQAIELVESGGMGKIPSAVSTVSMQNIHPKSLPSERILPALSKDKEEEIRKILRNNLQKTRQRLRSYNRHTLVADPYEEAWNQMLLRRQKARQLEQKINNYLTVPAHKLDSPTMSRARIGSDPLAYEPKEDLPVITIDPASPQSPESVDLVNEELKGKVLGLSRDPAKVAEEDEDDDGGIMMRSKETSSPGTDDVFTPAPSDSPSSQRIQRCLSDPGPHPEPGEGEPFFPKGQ

Row | Structure (SMILES) | IC50
1 | N=C(N)NC(=O)CC1c2cc(F)c(F)cc2C(=O)N1CCC(F)(F)F (racemic) [Example 40, (R)-N-{2-[5,6-Difluoro-3-oxo-2-(3,3,3-trifluoro-propyl)-2,3-dihydro-1H-isoindol-1-yl]-acetyl}-guanidine and (S)-N-{2-[5,6-Difluoro-3-oxo-2-(3,3,3-trifluoro-propyl)-2,3-dihydro-1H-isoindol-1-yl]-acetyl}-guanidine] | 29 nM
2 | [H]/N=C(\N)NC(=O)CC1c2cc(Cl)c(Cl)cc2C(=O)N1CC1CC1 (racemic) [Example 42, (R)-N-[2-(5,6-Dichloro-2-cyclopropylmethyl-3-oxo-2,3-dihydro-1H-isoindol-1-yl)-acetyl]-guanidine and (S)-N-[2-(5,6-Dichloro-2-cyclopropylmethyl-3-oxo-2,3-dihydro-1H-isoindol-1-yl)-acetyl]-guanidine] | 18 nM
3 | NC(N)=NC(=O)CC1c2cc(Cl)c(Cl)cc2C(=O)N1C1CC1 (racemic) [Example 43, (R)-N-[2-(5,6-Dichloro-2-cyclopropyl-3-oxo-2,3-dihydro-1H-isoindol-1-yl)-acetyl]-guanidine and (S)-N-[2-(5,6-Dichloro-2-cyclopropyl-3-oxo-2,3-dihydro-1H-isoindol-1-yl)-acetyl]-guanidine] | 30 nM
4 | CC(C(=O)NC(=N)N)C1c2ccccc2C(=O)N1CCO (single isomer, unassigned) [Example 33] | 3600 nM and 4700 nM
5 | [H]/N=C(\N)NC(=O)CC1c2cc(S(C)(=O)=O)ccc2C(=O)N1CC(F)(F)F (single isomer, unassigned) [Example 36a] | 524 nM
6 | [H]/N=C(\N)NC(=O)CC1c2cc(S(C)(=O)=O)ccc2C(=O)N1CC(F)(F)F (single isomer, unassigned) [Example 36b] | 6 nM
7 | NC(N)=NC(=O)CC1c2cc(C(F)(F)F)ccc2C(=O)N1CC1CC1 (single isomer, unassigned) [Example 38a] | 249 nM
8 | NC(N)=NC(=O)CC1c2cc(C(F)(F)F)ccc2C(=O)N1CC1CC1 (single isomer, unassigned) [Example 38b] | 5 nM
9 | N=C(N)NC(=O)CC1c2cc(F)c(F)cc2C(=O)N1CCC(F)(F)F (single isomer, unassigned) [Example 40a] | 263 nM
10 | N=C(N)NC(=O)CC1c2cc(F)c(F)cc2C(=O)N1CCC(F)(F)F (single isomer, unassigned) [Example 40b] | 63 nM
11 | [H]/N=C(\N)NC(=O)CC1c2cc(Cl)c(Cl)cc2C(=O)N1CCC(F)(F)F (single isomer, unassigned) [Example 41b] | 41 nM
12 | [H]/N=C(\N)NC(=O)CC1c2cc(Cl)c(Cl)cc2C(=O)N1CCC(F)(F)F (single isomer, unassigned) [Example 41c] | 19 nM
13 | [H]/N=C(\N)NC(=O)CC1c2cc(Cl)c(Cl)cc2C(=O)N1CC1CC1 (single isomer, unassigned) [Example 42a] | 66 nM
14 | [H]/N=C(\N)NC(=O)CC1c2cc(Cl)c(Cl)cc2C(=O)N1CC1CC1 (single isomer, unassigned) [Example 42b] | 3 nM
15 | NC(N)=NC(=O)CC1c2cc(Cl)c(Cl)cc2C(=O)N1C1CC1 (single isomer, unassigned) [Example 43a] | 53 nM
16 | NC(N)=NC(=O)CC1c2cc(Cl)c(Cl)cc2C(=O)N1C1CC1 (single isomer, unassigned) [Example 43b] | 442 nM
17 | NC(N)=NC(=O)CC1c2cc(Cl)c(Cl)cc2C(=O)N1CC(F)(F)F (single isomer, unassigned) [Example 44b] | 13 nM
18 | NC(N)=NC(=O)CC1c2cc(Cl)c(Cl)cc2C(=O)N1CC(F)(F)F (single isomer, unassigned) [Example 44c] | 260 nM
19 | NC(N)=NC(=O)CC1c2cc(C(F)(F)F)ccc2C(=O)N1CC(F)(F)F (single isomer, unassigned) [Example 46a] | 19 nM
20 | NC(N)=NC(=O)CC1c2cc(C(F)(F)F)ccc2C(=O)N1CC(F)(F)F (single isomer, unassigned) [Example 46b] | 0.2 nM

Row | Structure (SMILES) | IC50
21 | NC(N)=NC(=O)CC1c2ccc(C(F)(F)F)cc2C(=O)N1CC(F)(F)F (single isomer, unassigned) [Example 47a] | 70 nM
22 | NC(N)=NC(=O)CC1c2ccc(C(F)(F)F)cc2C(=O)N1CC(F)(F)F (single isomer, unassigned) [Example 47b] | 5790 nM
23 | NC(N)=NC(=O)CC1c2cc(C(F)(F)F)ccc2C(=O)N1CC(F)(F)F (single isomer, unassigned) [Example 48, N-{2-[3-Oxo-2-(2,2,2-trifluoro-ethyl)-6-trifluoromethyl-2,3-dihydro-1H-isoindol-1-yl]-acetyl}-guanidine hydrogen fumarate] | 0.2 nM
24 | NC(N)=NC(=O)CC1c2cc(Cl)ccc2C(=O)N1CCC(F)(F)F (single isomer, unassigned) [Example 49a] | 1 nM
25 | NC(N)=NC(=O)CC1c2cc(Cl)ccc2C(=O)N1CCC(F)(F)F (single isomer, unassigned) [Example 49b] | 13 nM
26 | NC(N)=NC(=O)CC1c2ccc(Cl)cc2C(=O)N1CCC(F)(F)F (single isomer, unassigned) [Example 50a] | 9 nM
27 | NC(N)=NC(=O)CC1c2ccc(Cl)cc2C(=O)N1CCC(F)(F)F (single isomer, unassigned) [Example 50b] | 6 nM
28 | NC(N)=NC(=O)CC1c2cc(C(F)(F)F)ccc2C(=O)N1CCC(F)(F)F (single isomer, unassigned) [Example 51a] | 6 nM
29 | NC(N)=NC(=O)CC1c2cc(C(F)(F)F)ccc2C(=O)N1CCC(F)(F)F (single isomer, unassigned) [Example 51b] | 171 nM
30 | NC(N)=NC(=O)CC1c2ccc(C(F)(F)F)cc2C(=O)N1CCC(F)(F)F (single isomer, unassigned) [Example 52a] | 50 nM
31 | NC(N)=NC(=O)CC1c2ccc(C(F)(F)F)cc2C(=O)N1CCC(F)(F)F (single isomer, unassigned) [Example 52b] | 671 nM
32 | NC(N)=NC(=O)CC1c2cc(Cl)ccc2C(=O)N1CCCC(F)(F)F (single isomer, unassigned) [Example 53a] | 83 nM
33 | NC(N)=NC(=O)CC1c2cc(Cl)ccc2C(=O)N1CCCC(F)(F)F (single isomer, unassigned) [Example 53b] | 16 nM
34 | NC(N)=NC(=O)CC1c2ccc(Cl)cc2C(=O)N1CCCC(F)(F)F (single isomer, unassigned) [Example 54a] | 944 nM
35 | NC(N)=NC(=O)CC1c2ccc(Cl)cc2C(=O)N1CCCC(F)(F)F (single isomer, unassigned) [Example 54b] | 48 nM
36 | NC(N)=NC(=O)CC1c2cc(Cl)ccc2C(=O)N1CC1CC1 (single isomer, unassigned) [Example 55a] | 2 nM
37 | NC(N)=NC(=O)CC1c2cc(Cl)ccc2C(=O)N1CC1CC1 (single isomer, unassigned) [Example 55b] | 20 nM
38 | NC(N)=NC(=O)CC1c2ccc(Cl)cc2C(=O)N1CC1CC1 (single isomer, unassigned) [Example 56a] | 28 nM
39 | NC(N)=NC(=O)CC1c2ccc(Cl)cc2C(=O)N1CC1CC1 (single isomer, unassigned) [Example 56b] | 18 nM
40 | CC(C)CN1C(=O)c2ccccc2C1CC(=O)N=C(N)N (single isomer, unassigned; (+)) [Example 4, (+)-N-[2-(2-Isobutyl-3-oxo-2,3-dihydro-1H-isoindol-1-yl)acetyl]guanidine] | 57 nM
